“And” between values parts separate entries of the source, which are not always exact repeats. Equal entries are not always repeated.
Conditions: 343.15 K, Liquid, Vibrating tube method

CCCCCCC(=O)OCC(COC(=O)CCCCCC)(COC(=O)CCCCCC)COC(=O)CCCCCC [pentaerythritol tetraheptanoate]
Conditions	mass density
23684 kPa	957.2 kg/m3
23715 kPa	957.3 kg/m3
23750 kPa	957.4 kg/m3
23753 kPa	957.2 kg/m3
23785 kPa	957.4 kg/m3
23818 kPa	957.3 kg/m3
23850 kPa	957.4 kg/m3
23889 kPa	957.4 kg/m3
23920 kPa	957.3 kg/m3
23952 kPa	957.4 kg/m3
23991 kPa	957.4 kg/m3
24024 kPa	957.5 kg/m3
24056 kPa	957.6 kg/m3
24094 kPa	957.5 kg/m3
24127 kPa	957.6 kg/m3
24128 kPa	957.6 kg/m3
24160 kPa	957.5 kg/m3
24199 kPa	957.7 kg/m3
24200 kPa	957.5 kg/m3
24232 kPa	957.6 kg/m3
24233 kPa	957.6 kg/m3
24265 kPa	957.6 kg/m3
24266 kPa	957.8 kg/m3
24299 kPa	957.6 kg/m3
24306 kPa	957.6 kg/m3
24334 kPa	957.8 kg/m3
24339 kPa	957.7 kg/m3
24372 kPa	957.7 kg/m3
24373 kPa	957.8 kg/m3
24407 kPa	957.7 kg/m3
24411 kPa	957.8 kg/m3
24440 kPa	957.7 kg/m3
24445 kPa	957.8 kg/m3
24478 kPa	957.8 kg/m3
24480 kPa	957.8 kg/m3
24513 kPa	957.8 kg/m3
24519 kPa	957.7 kg/m3
24552 kPa	957.7 kg/m3
24554 kPa	957.8 kg/m3
24586 kPa	957.9 kg/m3
24621 kPa	958 kg/m3
24626 kPa	957.9 kg/m3
24661 kPa	957.9 kg/m3
24696 kPa	957.9 kg/m3
24737 kPa	957.9 kg/m3
24771 kPa	957.9 kg/m3
24806 kPa	957.9 kg/m3
24840 kPa	958 kg/m3
24882 kPa	958 kg/m3
24916 kPa	958.1 kg/m3
24917 kPa	958.1 kg/m3
24952 kPa	958.1 kg/m3 and 958.2 kg/m3
24988 kPa	958.2 kg/m3
24993 kPa	958.1 kg/m3
25028 kPa	958.2 kg/m3
25070 kPa	958.2 kg/m3
25105 kPa	958.1 kg/m3
25141 kPa	958.2 kg/m3
25148 kPa	958.1 kg/m3
25184 kPa	958.3 kg/m3
25220 kPa	958.2 kg/m3
25250 kPa	958.4 kg/m3
25256 kPa	958.1 kg/m3
25279 kPa	958.4 kg/m3
25292 kPa	958.2 kg/m3
25308 kPa	958.3 kg/m3
25336 kPa	958.4 kg/m3
25343 kPa	958.5 kg/m3
25372 kPa	958.2 kg/m3 and 958.5 kg/m3
25402 kPa	958.5 kg/m3
25415 kPa	958.3 kg/m3
25452 kPa	958.3 kg/m3
25488 kPa	958.3 kg/m3
25525 kPa	958.4 kg/m3
25530 kPa	958.5 kg/m3
25560 kPa	958.5 kg/m3
25570 kPa	958.4 kg/m3
25590 kPa	958.5 kg/m3
25607 kPa	958.6 kg/m3
25626 kPa	958.5 kg/m3
25645 kPa	958.4 kg/m3
25656 kPa	958.6 kg/m3
25687 kPa	958.6 kg/m3
25692 kPa	958.5 kg/m3
25723 kPa	958.6 kg/m3
25730 kPa	958.5 kg/m3
25752 kPa	958.6 kg/m3
25767 kPa	958.6 kg/m3
25788 kPa	958.7 kg/m3
25805 kPa	958.7 kg/m3
25819 kPa	958.6 kg/m3
25843 kPa	958.6 kg/m3
25849 kPa	958.6 kg/m3
25885 kPa	958.7 kg/m3
25888 kPa	958.5 kg/m3
25915 kPa	958.7 kg/m3
25927 kPa	958.6 kg/m3
25946 kPa	958.8 kg/m3
25966 kPa	958.7 kg/m3
25983 kPa	958.8 kg/m3
26012 kPa	958.8 kg/m3
26014 kPa	958.9 kg/m3
26045 kPa	958.9 kg/m3
26050 kPa	958.8 kg/m3
26082 kPa	958.8 kg/m3
26090 kPa	958.7 kg/m3
26114 kPa	958.9 kg/m3
26136 kPa	958.8 kg/m3
26145 kPa	958.8 kg/m3
26176 kPa	958.9 kg/m3 and 958.8 kg/m3
26214 kPa	958.9 kg/m3
26217 kPa	958.9 kg/m3
26244 kPa	959 kg/m3
26256 kPa	958.9 kg/m3
26282 kPa	958.9 kg/m3
26296 kPa	959 kg/m3
26313 kPa	959 kg/m3
26343 kPa	958.9 kg/m3
26345 kPa	959 kg/m3
26383 kPa	959 kg/m3 and 959.1 kg/m3
26414 kPa	958.9 kg/m3
26430 kPa	959 kg/m3
26447 kPa	959 kg/m3
26470 kPa	959 kg/m3
26485 kPa	959.1 kg/m3
26510 kPa	959 kg/m3
26518 kPa	959.2 kg/m3
26549 kPa	959.1 kg/m3
26550 kPa	959.2 kg/m3
26583 kPa	959.2 kg/m3
26597 kPa	959.3 kg/m3
26622 kPa	959.1 kg/m3
26638 kPa	959.2 kg/m3
26654 kPa	959.2 kg/m3
26679 kPa	959.1 kg/m3
26693 kPa	959.1 kg/m3
26725 kPa	959.3 kg/m3
26729 kPa	959.2 kg/m3
26758 kPa	959.2 kg/m3
26771 kPa	959.3 kg/m3
26791 kPa	959.3 kg/m3
26812 kPa	959.3 kg/m3
26831 kPa	959.4 kg/m3
26863 kPa	959.2 kg/m3
26864 kPa	959.3 kg/m3
26898 kPa	959.4 kg/m3
26905 kPa	959.3 kg/m3
26939 kPa	959.3 kg/m3
26949 kPa	959.3 kg/m3
26999 kPa	959.3 kg/m3
27006 kPa	959.3 kg/m3
27037 kPa	959.4 kg/m3
27071 kPa	959.4 kg/m3
27081 kPa	959.5 kg/m3
27111 kPa	959.5 kg/m3
27114 kPa	959.5 kg/m3
27145 kPa	959.5 kg/m3
27148 kPa	959.5 kg/m3
27186 kPa	959.5 kg/m3
27189 kPa	959.6 kg/m3
27221 kPa	959.5 kg/m3
27224 kPa	959.6 kg/m3
27256 kPa	959.5 kg/m3
27258 kPa	959.6 kg/m3
27290 kPa	959.6 kg/m3
27300 kPa	959.5 kg/m3
27332 kPa	959.6 kg/m3
27335 kPa	959.7 kg/m3
27367 kPa	959.7 kg/m3
27371 kPa	959.6 kg/m3
27402 kPa	959.6 kg/m3
27408 kPa	959.7 kg/m3
27444 kPa	959.6 kg/m3
27447 kPa	959.7 kg/m3
27479 kPa	959.7 kg/m3
27514 kPa	959.7 kg/m3
27556 kPa	959.7 kg/m3
27590 kPa	959.8 kg/m3
27592 kPa	959.8 kg/m3
27618 kPa	959.8 kg/m3
27627 kPa	959.8 kg/m3
27670 kPa	959.9 kg/m3
27698 kPa	959.7 kg/m3
27742 kPa	959.8 kg/m3
27786 kPa	959.9 kg/m3
27822 kPa	959.8 kg/m3
27858 kPa	959.9 kg/m3
27877 kPa	959.9 kg/m3
27902 kPa	960.1 kg/m3
27910 kPa	960 kg/m3
27939 kPa	960 kg/m3
27975 kPa	959.9 kg/m3
28012 kPa	959.9 kg/m3
28056 kPa	960 kg/m3
28087 kPa	960.2 kg/m3
28093 kPa	960 kg/m3
28116 kPa	960.2 kg/m3
28137 kPa	960.1 kg/m3
28144 kPa	960.1 kg/m3
28175 kPa	960.1 kg/m3
28178 kPa	960.2 kg/m3
28207 kPa	960.1 kg/m3
28213 kPa	960.2 kg/m3
28236 kPa	960.1 kg/m3
28251 kPa	960.2 kg/m3
28269 kPa	960.2 kg/m3
28288 kPa	960.2 kg/m3
28298 kPa	960.3 kg/m3
28327 kPa	960.2 kg/m3
28333 kPa	960.2 kg/m3
28361 kPa	960.4 kg/m3
28370 kPa	960.2 kg/m3
28389 kPa	960.3 kg/m3
28416 kPa	960.3 kg/m3
28418 kPa	960.3 kg/m3
28453 kPa	960.3 kg/m3
28454 kPa	960.3 kg/m3
28476 kPa	960.5 kg/m3
28492 kPa	960.3 kg/m3
28511 kPa	960.3 kg/m3
28538 kPa	960.4 kg/m3
28540 kPa	960.4 kg/m3
28576 kPa	960.4 kg/m3
28605 kPa	960.4 kg/m3

Reference: the NIST ThermoML archive (doi:10.1021/je060271a)
